The target in one assay is CDK2/Cyclin E2 (Homo sapiens, UniProt P24941). The assay can be described thus: CDK2/CyclinE2 Enzymatic Activity Assay (TR-FRET). In kind it is biochemical. The conditions noted are these: CDK2/CyclinE2 1 nM, ATP 1 mM, read-out: CDK2_El IC50. The method, then: CDK2/CyclinE2 Enzymatic Activity Assay
The inhibitory activity of compounds was evaluated in vitro using TR-FRET assay with white 384-well low volume microplate (Greiner Bio-One). CDK2/Cyclin E2 catalyzed phosphorylation of peptide in the presence and absence of compounds was measured and used in IC50 determination. Recombinant protein complex CDK2/Cyclin E2, expressed from insect cell, was purchased from ProQinase. Testing compounds were dissolved in DMSO at 1 mM and tested in 9-dose IC50 mode. The reaction mixture was prepared by mixing CDK2/CyclinE2 (1 nM final), ULight-4E-BP1 (50 nM final, Perkinelmer, TRF0128-D), and ATP (1 mM final) in assay buffer (20 mM of HEPES pH 7.4, 1 mM of EGTA, 0.05% BSA, 0.005% Tween 20, and 1 mM TCEP). The compound of interest in DMSO was added to each well in 3-fold serial dilution by dispenser (TECAN D300E) to make a 9.9 μL of reaction mixture. After 20 minutes preincubation at room temperature, 0.1 μL MgCl2 (10 mM final) was added to initiate the reaction. Following a 45 minute incubation at 37° C., the reaction was stopped by addition of 2 μL of quenching buffer consisting of Lance detection buffer (Perkinelmer CR97-100C), LANCE Ultra Europium-anti-P-4E-BP1 (Perkinelmer, TRF0216-D), EDTA, and incubate at room temperature for additional 60 minutes in the dark. The reaction signal was measured by Envision multimode plate reader (PerkinElmer, 2102-0010). IC50 values were determined by fitting the data to the standard 4 parameters with Hill Slope using GraphPad Prism software.
Background: Time-resolved FRET reads energy transfer from a long-lived donor to a nearby acceptor.

For a further assay, the system named is pRB in OVCAR3 cells. In words: pRB ICW Assay in OVCAR3 Cells. In kind it is cell-based. The conditions noted are these: Homo sapiens, OVCAR-3, incubated with compound for 2 hours, read-out: OVCAR3 p-RB ICW IC50. The method, then: pRB ICW Assay in OVCAR3 Cells
OVCAR3 cells were maintained in RPMI (Corning, Catalog #: 10-040-CV) supplemented with 10% v/v FBS (Gibco, Catalog #: 26140-079), 1% v/v Penicillin Streptomycin (Gibco, Catalog #15140-122.) OVCAR3 cells grown at log phase were trypsinized, counted, and resuspended in fresh medium to reach a final density of 6.7e4 cells/mL and 75 μL of culture were dispensed into a 384-well plate (Falcon, cat #353962) using a Multidrop Combi dispenser (Thermo Scientific). The next day, compounds were dispensed as a 9-point, ½ log serial dilution using a Tecan digital dispenser (D300e), and cells were incubated with compound for 2 hours in a humidified incubator at 37° C. A reference compound at a final concentration of 10 μM was used as a control for maximum inhibition. Each compound was tested in duplicates for each experiment. At the end of the incubation, 25 μL of 16% paraformaldehyde (Electron Microscopy, cat #15710) was slowly added to each well and the plate was incubated at room temperature (RT) for 30 minutes to fix cells. Cells were then permeabilized by incubating with 50 μL/well of wash buffer (lx PBS with 0.1% Triton X-100) 5×5 minutes, followed by 1 hour blocking with 30 μL/well of Odyssey blocking buffer (Li—COR, cat #927-40000), at RT. Anti-phosphor RB antibody (Cell signaling 8516S) was diluted 1:1000 in Odyssey blocking buffer and 20 μL was added to all wells and incubated overnight in 4° C. with gently rocking. The next day, cells were washed 5×5 min with 50 μL/well of wash buffer, followed with 1 hour incubation with secondary antibody and DRAQ5 diluted in Odyssey blocking buffer (1:500 dilution for secondary antibody and 1:2000 dilution for DRAQ5), 5×5 min washes, and one last wash with water. Plates were dried in 37° C. oven for 5 minutes and scanned using Li—COR Odyssey CLx imaging system to acquire intensities at 700 and 800 nm channels.

A further assay deals with T1, CDK4/Cyclin D1 (Homo sapiens, UniProt P11802).
T1 construct: purchased ProQinase; host or cells: insect cell
In words: CDK4/CyclinD1 Enzymatic Activity Assay (TR-FRET). In kind it is biochemical. The following applies: CDK4/CyclinD1 1 nM, ATP 2 mM, read-out: CDK4_D1 IC50. Here is the method:
CDK4/CyclinD1 Enzymatic Activity Assay
The inhibitory activity of compounds was evaluated in vitro using TR-FRET assay with white 384-well low volume microplate (Greiner Bio-One). CDK4/Cyclin D1 catalyzed phosphorylation of peptide in the presence and absence of compounds was measured and used in IC50 determination. Recombinant protein complex CDK4/Cyclin D1, expressed from insect cell, was purchased from ProQinase. Testing compounds were dissolved in DMSO at 1 mM and tested in 9-dose IC50 mode. The reaction mixture was prepared by mixing CDK4/CyclinD1 (1 nM final), ULight-4E-BP1 (100 nM final, Perkinelmer, TRF0128-D), and ATP (2 mM final) in assay buffer (20 mM of HEPES pH 7.4, 1 mM of EGTA, 0.05% BSA, 0.005% Tween 20, and 1 mM TCEP). The compound of interest in DMSO was added to each well in 3-fold serial dilution by the dispenser (TECAN D300E) to make a 9.9 μL of reaction mixture. After 20 minutes preincubation at room temperature, 0.1 μL MgCl2 (10 mM final) was added to initiate the reaction. Following a 45 minute incubation at 37° C., the reaction was stopped by addition of 2 μL of quenching buffer consisting of Lance detection buffer (Perkinelmer CR97-100C), LANCE Ultra Europium-anti-P-4E-BP1 (Perkinelmer, TRF0216-D), EDTA, and incubated at room temperature for additional 60 minutes in dark. The reaction signal was measured by Envision multimode plate reader (PerkinElmer, 2102-0010). IC50 values were determined by fitting the data to the standard 4 parameters with Hill Slope using GraphPad Prism software.

The structures appear in SMILES notation.

T1 sequence (P11802 whole entry): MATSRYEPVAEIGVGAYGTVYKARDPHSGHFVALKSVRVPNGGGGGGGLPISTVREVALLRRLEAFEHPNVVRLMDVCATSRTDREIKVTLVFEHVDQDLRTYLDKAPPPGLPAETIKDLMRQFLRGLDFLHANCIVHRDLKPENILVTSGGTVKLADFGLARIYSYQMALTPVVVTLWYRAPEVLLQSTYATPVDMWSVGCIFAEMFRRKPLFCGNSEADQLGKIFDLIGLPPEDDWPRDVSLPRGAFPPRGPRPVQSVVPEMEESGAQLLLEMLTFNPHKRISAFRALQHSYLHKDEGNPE
T1 sequence (P24385 whole entry partner): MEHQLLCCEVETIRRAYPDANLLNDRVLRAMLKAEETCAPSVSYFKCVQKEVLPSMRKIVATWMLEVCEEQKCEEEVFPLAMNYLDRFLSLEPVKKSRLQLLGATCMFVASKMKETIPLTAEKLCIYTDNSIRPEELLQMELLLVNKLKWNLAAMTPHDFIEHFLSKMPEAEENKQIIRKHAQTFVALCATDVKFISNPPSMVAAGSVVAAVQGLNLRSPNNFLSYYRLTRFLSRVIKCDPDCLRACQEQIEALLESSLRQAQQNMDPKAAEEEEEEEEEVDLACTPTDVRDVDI

Turning to `CC(C)C12CC(O)CN1C(=O)c1cc(-c3nc(NC4CCN(S(C)(=O)=O)CC4)ncc3C(F)(F)F)sc12` (stereo not drawn) [Example 29, 7-Hydroxy-8a-isopropyl-2-(2-((1-(methylsulfonyl)piperidin-4-yl)amino)-5-(trifluoromethyl)pyrimidin-4-yl)-6,7,8,8a-tetrahydro-4H-thieno[2,3-a]pyrrolizin-4-one], the IC50 on CDK2/Cyclin E2, with pRB in OVCAR3 cells and on CDK4/Cyclin D1 was ≤ 100 nM throughout.
`COC1CN2C(=O)c3cc(-c4nc(NC5CCN(S(C)(=O)=O)CC5)ncc4C(F)(F)F)sc3C2(C(C)C)C1` (stereo not drawn) [Example 30, 8a-Isopropyl-7-methoxy-2-(2-((1-(methylsulfonyl)piperidin-4-yl)amino)-5-(trifluoromethyl)pyrimidin-4-yl)-6,7,8,8a-tetrahydro-4H-thieno[2,3-a]pyrrolizin-4-one]: the IC50 is ≤ 100 nM on CDK2/Cyclin E2, 100 to 500 nM in the assay with pRB in OVCAR3 cells and ≤ 100 nM on CDK4/Cyclin D1.
For the compound `CC(C)C12CC(CO)CN1C(=O)c1cc(-c3nc(NC4CCN(S(C)(=O)=O)CC4)ncc3C(F)(F)F)sc12` (stereo not drawn) [Example 31, 7-(Hydroxymethyl)-8a-isopropyl-2-(2-((1-(methylsulfonyl)piperidin-4-yl)amino)-5-(trifluoromethyl)pyrimidin-4-yl)-6,7,8,8a-tetrahydro-4H-thieno[2,3-a]pyrrolizin-4-one], the IC50 at CDK2/Cyclin E2, in the assay with pRB in OVCAR3 cells and at CDK4/Cyclin D1 was ≤ 100 nM each time.
On to `CCC12CC(F)(F)CN1C(=O)c1cc(-c3nc(NC4CCN(S(C)(=O)=O)CC4)ncc3C(F)(F)F)sc12` (stereo not drawn) [Example 32, 8a-Ethyl-7,7-difluoro-2-(2-((1-(methylsulfonyl)piperidin-4-yl)amino)-5-(trifluoromethyl)pyrimidin-4-yl)-6,7,8,8a-tetrahydro-4H-thieno[2,3-a]pyrrolizin-4-one], for which the IC50 on CDK2/Cyclin E2, in the assay on pRB in OVCAR3 cells and on CDK4/Cyclin D1 was ≤ 100 nM in each case.
In the case of `CCC12CC(O)CN1C(=O)c1cc(-c3nc(NC4CCN(S(C)(=O)=O)CC4)ncc3C(F)(F)F)sc12` (stereo not drawn) [Example 33, 8a-Ethyl-7-hydroxy-2-(2-((1-(methylsulfonyl)piperidin-4-yl)amino)-5-(trifluoromethyl)pyrimidin-4-yl)-6,7,8,8a-tetrahydro-4H-thieno[2,3-a]pyrrolizin-4-one], the IC50 at CDK2/Cyclin E2, in the assay on pRB in OVCAR3 cells and on CDK4/Cyclin D1 was ≤ 100 nM throughout.
In the case of `CCC12CC(C)(O)CN1C(=O)c1cc(-c3nc(NC4CCN(S(C)(=O)=O)CC4)ncc3C(F)(F)F)sc12` (stereo not drawn) [Example 34, 8a-Ethyl-7-hydroxy-7-methyl-2-(2-((1-(methylsulfonyl)piperidin-4-yl)amino)-5-(trifluoromethyl)pyrimidin-4-yl)-6,7,8,8a-tetrahydro-4H-thieno[2,3-a]pyrrolizin-4-one], the IC50 on CDK2/Cyclin E2, in the assay on pRB in OVCAR3 cells and at CDK4/Cyclin D1 was ≤ 100 nM throughout.
In the case of `CCC12CC(F)(F)CN1C(=O)c1cc(-c3nc(NC4CCN(S(=O)(=O)c5cnn(C)c5)CC4)ncc3C(F)(F)F)sc12` (stereo not drawn) [Example 35, 8a-Ethyl-7,7-difluoro-2-(2-((1-((1-methyl-1H-pyrazol-4-yl)sulfonyl)piperidin-4-yl)amino)-5-(trifluoromethyl)pyrimidin-4-yl)-6,7,8,8a-tetrahydro-4H-thieno[2,3-a]pyrrolizin-4-one], the IC50 at CDK2/Cyclin E2, with pRB in OVCAR3 cells and at CDK4/Cyclin D1 was ≤ 100 nM each time.
In the case of `CCC12CC(O)CN1C(=O)c1cc(-c3nc(NC4CCN(S(=O)(=O)c5cnn(C)c5)CC4)ncc3C(F)(F)F)sc12` (stereo not drawn) [Example 36, 8a-Ethyl-7-hydroxy-2-(2-((1-((1-methyl-1H-pyrazol-4-yl)sulfonyl)piperidin-4-yl)amino)-5-(trifluoromethyl)pyrimidin-4-yl)-6,7,8,8a-tetrahydro-4H-thieno[2,3-a]pyrrolizin-4-one], the IC50 at CDK2/Cyclin E2, in the assay with pRB in OVCAR3 cells and at CDK4/Cyclin D1 was ≤ 100 nM in each case.
As to `CCC12CCCN1C(=O)c1cc(-c3nc(NC4CCN(S(=O)(=O)c5cnn(C)c5)CC4)ncc3C(F)(F)F)sc12` (stereo not drawn) [Example 37, 8a-Ethyl-2-(2-((1-((1-methyl-1H-pyrazol-4-yl)sulfonyl)piperidin-4-yl)amino)-5-(trifluoromethyl)pyrimidin-4-yl)-6,7,8,8a-tetrahydro-4H-thieno[2,3-a]pyrrolizin-4-one], the half-maximal inhibitory concentration (IC50) at CDK2/Cyclin E2, in the assay on pRB in OVCAR3 cells and on CDK4/Cyclin D1 was ≤ 100 nM in each case.
In the case of `CCC12CC(NC)CN1C(=O)c1cc(-c3nc(NC4CCN(S(C)(=O)=O)CC4)ncc3C(F)(F)F)sc12` (stereo not drawn) [Example 38, 8a-Ethyl-7-(methylamino)-2-(2-((1-(methylsulfonyl)piperidin-4-yl)amino)-5-(trifluoromethyl)pyrimidin-4-yl)-6,7,8,8a-tetrahydro-4H-thieno[2,3-a]pyrrolizin-4-one], the half-inhibitory concentration (IC50) on CDK2/Cyclin E2, in the assay with pRB in OVCAR3 cells and at CDK4/Cyclin D1 was ≤ 100 nM throughout.
For the compound `CCC12CC(N(C)C)CN1C(=O)c1cc(-c3nc(NC4CCN(S(C)(=O)=O)CC4)ncc3C(F)(F)F)sc12` (stereo not drawn) [Example 39, 7-(Dimethylamino)-8a-ethyl-2-(2-((1-(methylsulfonyl)piperidin-4-yl)amino)-5-(trifluoromethyl)pyrimidin-4-yl)-6,7,8,8a-tetrahydro-4H-thieno[2,3-a]pyrrolizin-4-one], the 50% inhibitory concentration (IC50) at CDK2/Cyclin E2, in the assay on pRB in OVCAR3 cells and on CDK4/Cyclin D1 was ≤ 100 nM throughout.
For `CCC12CC(N)CN1C(=O)c1cc(-c3nc(NC4CCN(S(C)(=O)=O)CC4)ncc3C(F)(F)F)sc12` (stereo not drawn) [Example 40, 7-Amino-8a-ethyl-2-(2-((1-(methylsulfonyl)piperidin-4-yl)amino)-5-(trifluoromethyl)pyrimidin-4-yl)-6,7,8,8a-tetrahydro-4H-thieno[2,3-a]pyrrolizin-4-one], the IC50 at CDK2/Cyclin E2, in the assay on pRB in OVCAR3 cells and at CDK4/Cyclin D1 was ≤ 100 nM in each case.
For the compound `CCNC1CN2C(=O)c3cc(-c4nc(NC5CCN(S(C)(=O)=O)CC5)ncc4C(F)(F)F)sc3C2(CC)C1` (stereo not drawn) [Example 41, 8a-Ethyl-7-(ethylamino)-2-(2-((1-(methylsulfonyl)piperidin-4-yl)amino)-5-(trifluoromethyl)pyrimidin-4-yl)-6,7,8,8a-tetrahydro-4H-thieno[2,3-a]pyrrolizin-4-one], the half-inhibitory concentration (IC50) on CDK2/Cyclin E2, with pRB in OVCAR3 cells and on CDK4/Cyclin D1 was ≤ 100 nM throughout.

A word on the IC50: it is the midpoint of a concentration-inhibition curve.
